In patent US20250304576A1 (Cancer Research Technology Limited, priority 2022, published 2025):
Like-named read-outs stand apart in the source and are kept apart here.

Target: T1, IKBKB (IKKβ) (Homo sapiens, UniProt O14920)
T1 construct: purchased Life Technologies (assay performed by the vendor)
T1 sequence (O14920 1-756): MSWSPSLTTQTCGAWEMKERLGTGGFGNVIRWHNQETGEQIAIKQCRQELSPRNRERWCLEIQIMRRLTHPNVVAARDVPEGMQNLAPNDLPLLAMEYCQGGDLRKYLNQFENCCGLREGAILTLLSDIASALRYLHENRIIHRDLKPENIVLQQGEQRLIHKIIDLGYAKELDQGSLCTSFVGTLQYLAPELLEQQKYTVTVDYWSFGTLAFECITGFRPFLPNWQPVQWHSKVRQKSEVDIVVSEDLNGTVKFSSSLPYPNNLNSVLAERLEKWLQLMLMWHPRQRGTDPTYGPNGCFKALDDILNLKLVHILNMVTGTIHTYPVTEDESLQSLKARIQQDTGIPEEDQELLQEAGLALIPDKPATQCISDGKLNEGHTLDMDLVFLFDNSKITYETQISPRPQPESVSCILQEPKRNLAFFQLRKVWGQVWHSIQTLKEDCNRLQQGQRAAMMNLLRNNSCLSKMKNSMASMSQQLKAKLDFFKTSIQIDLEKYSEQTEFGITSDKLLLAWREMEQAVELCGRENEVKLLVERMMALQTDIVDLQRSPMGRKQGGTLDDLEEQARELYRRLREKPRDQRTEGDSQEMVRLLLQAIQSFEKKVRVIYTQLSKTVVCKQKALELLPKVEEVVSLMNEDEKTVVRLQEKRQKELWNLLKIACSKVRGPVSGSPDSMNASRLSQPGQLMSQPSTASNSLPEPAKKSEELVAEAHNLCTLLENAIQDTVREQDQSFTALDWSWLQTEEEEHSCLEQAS
Assay: Z'-LYTE IKKβ assay (Life Technologies)
Format: biochemical
Procedure: IKKα and IKKβ inhibitory activity was determined using three different assays: a dissociation enhanced ligand fluorescent immunoassay (DELFIA) based on the protocol of HTScan™ IKKβ Kinase Assay (Cell Signaling Technology, USA); an Adapta IKKα assay (performed by Life Technologies); a Z′-LYTE™ IKKβ assay (performed by Life Technologies).
The reaction was performed in low volume NBS, black 384-well plates (Corning model 4514).
The test compounds were screened in 1% DMSO (final) in the well. For 10 point titrations, 3-fold serial dilutions were conducted from the starting concentration of 50 mM.
The 2× IKBKB (IKKβ)/Ser/Thr 05 mixture was prepared in 50 mM HEPES pH 7.5, 0.01% BRIJ-35, 10 mM MgCl2, 1 mM EGTA. The final 10 μL Kinase Reaction consisted of 0.62-4 ng IKBKB (IKKβ) and 2 μM Ser/Thr 05 in 50 mM HEPES pH 7.5, 0.01% BRIJ-35, 10 mM MgCl2, 1 mM EGTA.
5 μL of 2× Kinase reaction was incubated with 2.5 μL of ATP solution diluted to a 4× working concentration in Kinase Buffer (50 mM HEPES pH 7.5, 0.01% BRIJ-35, 10 mM MgCl2, 1 mM EGTA) in the presence of […] of 100× test compound in 100% DMSO and 2.4 μL of Kinase buffer.
The resulting kinase reaction was allowed to incubate for 1 hour at room temperature before 5 μL of a 1:64 dilution of Development Reagent B was added and the resulting Development Reaction was incubated for another hour at room temperature. Then the plate was read on a fluorescence plate reader and the data analysed.
A ratiometric method, which calculated the Emission Ratio of donor emission (i.e. coumarin) to acceptor emission (i.e. fluorescein) after excitation of the donor fluorophore at 400 nm, was used to quantitate reaction progress, as shown in the equation below.

IC50 (Life Technologies assay)	IC50	SMILES
342 nM		Nc1nccc(-c2ccc3[nH]nc(N)c3c2)c1C#CC1CCCCC1 [Example 74, 5-(2-Amino-3-(cyclohexylethynyl)pyridine-4-yl)-1H-indazol-3-amine]
3090 nM		CC(C)(O)C#Cc1cc(-c2ccnc(N)c2)cc2c(N)n[nH]c12 [Example 140, 4-(3-Amino-5-(2-aminopyridin-4-yl)-1H-indazol-7-yl)-2-methylbut-3-yn-2-ol]
	454 nM	Nc1n[nH]c2ccc(-c3ccnc4[nH]c(CN5CCCCC5)cc34)cc12 [Example 260, 5-(2-(Piperidin-1-ylmethyl)-1H-pyrrolo[2,3-b]pyridine-4-yl)-1H-indazol-3-amine]
	245 nM	CN(C)CCCNCc1cc2c(-c3ccc4[nH]nc(N)c4c3)ccnc2[nH]1 [Example 258, N^1-((4-(3-amino-1H-indazol-5-yl)-1H-pyrrolo[2,3-b]pyridin-2-yl)methyl)-N^3,N^3-dimethylpropane-1,3-diamine]
	46 nM	Nc1n[nH]c2ccc(-c3ccnc4[nH]c(CCCN5CCCCC5)cc34)cc12 [Example 269, 5-(2-(3-(Piperidin-1-yl)propyl)-1H-pyrrolo[2,3-b]pyridin-4-yl)-1H-indazol-3-amine]
	350 nM	Nc1n[nH]c2ccc(-c3ccnc4[nH]c(CN5CCCCCC5)cc34)cc12 [Example 265, 5-(2-(Azepan-1-ylmethyl)-1H-pyrrolo[2,3-b]pyridine-4-yl)-1H-indazol-3-amine]
	655 nM	Nc1n[nH]c2ccc(-c3ccnc4[nH]c(CC5CCCCC5)cc34)cc12 [Example 221, 5-(2-(Cyclohexylmethyl)-1H-pyrrolo[2,3-b]pyridin-4-yl)-1H-indazol-3-amine]
	138 nM	Nc1n[nH]c2ccc(-c3ccnc4[nH]c(CCN5CCOCC5)cc34)cc12 [Example 268, 5-(2-(2-Morpholinoethyl)-1H-pyrrolo[2,3-b]pyridin-4-yl)-1H-indazol-3-amine]
	225 nM	Nc1n[nH]c2ccc(-c3ccnc4[nH]c(C5CCCCO5)cc34)cc12 (stereo not drawn) [Example 229, 5-(2-(Tetrahydro-2H-pyran-2-yl)-1H-pyrrolo[2,3-b]pyridin-4-yl)-1H-indazol-3-amine]
53 nM		Nc1nccc(-c2ccc3[nH]nc(N)c3c2)c1C#CCCO [Example 84, 4-(2-Amino-4-(3-amino-1H-indazol-5-yl)pyridine-3-yl)but-3-yn-1-ol]
	790 nM	CC(C)N(C)Cc1cc2c(-c3ccc4[nH]nc(N)c4c3)ccnc2[nH]1 [Example 259, 5-(2-((Isopropyl(methyl)amino)methyl)-1H-pyrrolo[2,3-b]pyridine-4-yl)-1H-indazol-3-amine]
	280 nM	Nc1n[nH]c2ccc(-c3ccnc4[nH]c(C5CCCCC5)cc34)cc12 [Example 219, 5-(2-Cyclohexyl-1H-pyrrolo[2,3-b]pyridin-4-yl)-1H-indazol-3-amine]

The next lines start with the compound.

SMILES	IC50 (Life Technologies assay)	IC50
CC(C)(C)OCC#Cc1c(-c2ccc3[nH]nc(N)c3c2)ccnc1N [Example 88, 5-(2-Amino-3-(3-(tert-butoxy)prop-1-yn-1-yl)pyridine-4-yl)-1H-indazol-3-amine]	442 nM	
Nc1n[nH]c2ccc(-c3ccnc4[nH]c(CN5CCC(F)(F)CC5)cc34)cc12 [Example 261, 5-(2-((4,4-Difluoropiperidin-1-yl)methyl)-1H-pyrrolo[2,3-b]pyridine-4-yl)-1H-indazol-3-amine]		286 nM
Nc1n[nH]c2ccc(-c3ccnc4[nH]c(CNC5CCCCC5)cc34)cc12 [Example 251, 5-(2-((cyclohexylamino)methyl)-1H-pyrrolo[2,3-b]339yridine-4-yl)-1H-indazol-3-amine]		405 nM
CC(C)(O)C#Cc1cc(-c2ccnc3[nH]ccc23)cc2c(N)n[nH]c12 [Example 206, 4-(3-Amino-5-(1H-pyrrolo[2,3-b]pyridin-4-yl)-1H-indazol-7-yl)-2-methylbut-3-yn-2-ol]		294 nM
Nc1nccc(-c2ccc3[nH]nc(N)c3c2)c1C#CCCC(=O)N1CCOCC1 [Example 99, 5-(2-Amino-4-(3-amino-1H-indazol-5-yl)pyridine-3-yl)-1-morpholinopent-4-yn-1-one]	264 nM	
Nc1n[nH]c2ccc(-c3ccnc4[nH]c(CCN5CCCCC5)cc34)cc12 [Example 267, 5-(2-(2-(Piperidin-1-yl)ethyl)-1H-pyrrolo[2,3-b]pyridine-4-yl)-1H-indazol-3-amine]		235 nM
Nc1nccc(-c2ccc3[nH]nc(N)c3c2)c1C#CCCN1CCCCC1 [Example 93, 5-(2-Amino-3-(4-(piperidin-1-yl)but-1-yn-1-yl)pyridin-4-yl)-1H-indazol-3-amine]	254 nM	
Nc1nccc(-c2ccc3[nH]nc(N)c3c2)c1C#CCCCN1CCOCC1 [Example 96, 5-(2-Amino-3-(5-morpholinopent-1-yn-1-yl)pyridin-4-yl)-1H-indazol-3-amine]	705 nM	
Nc1nccc(-c2ccc3[nH]nc(N)c3c2)c1C#Cc1ccccc1 [Example 75, 5-(2-Amino-3-(phenylethynyl)pyridine-4-yl)-1H-indazol-3-amine]	101 nM	
CC(C)(C)C#Cc1cc(-c2ccnc3[nH]ccc23)cc2c(N)n[nH]c12 [Example 201, 7-(3,3-Dimethylbut-1-yn-1-yl)-5-(1H-pyrrolo[2,3-b]pyridin-4-yl)-1H-indazol-3-amine]		1200 nM
Nc1n[nH]c2ccc(-c3ccnc4[nH]c(CN5CCOCC5)cc34)cc12 [Example 262, 5-(2-(Morpholinomethyl)-1H-pyrrolo[2,3-b]pyridine-4-yl)-1H-indazol-3-amine]		269 nM
CC(C)(C)C#Cc1c(-c2ccc3[nH]nc(N)c3c2)ccnc1N [Example 72, 5-(2-Amino-3-(3,3-dimethylbut-1-yn-1-yl)pyridine-4-yl)-1H-indazol-3-amine]	65 nM	
Nc1n[nH]c2c(C#CC3CCCC3)cc(-c3ccnc4[nH]ccc34)cc12 [Example 203, 7-(Cyclopentylethynyl)-5-(1H-pyrrolo[2,3-b]pyridin-4-yl)-1H-indazol-3-amine]		1530 nM
CC(C)(C)OCc1cc2c(-c3ccc4[nH]nc(N)c4c3)ccnc2[nH]1 [Example 227, 5-(2-(tert-Butoxymethyl)-1H-pyrrolo[2,3-b]pyridin-4-yl)-1H-indazol-3-amine]		388 nM
Nc1n[nH]c2ccc(-c3ccnc4[nH]c(CCCN5CCOCC5)cc34)cc12 [Example 271, 5-(2-(3-Morpholinopropyl)-1H-pyrrolo[2,3-b]pyridin-4-yl)-1H-indazlo-3-amine]		111 nM
CN1CCN(Cc2cc3c(-c4ccc5[nH]nc(N)c5c4)ccnc3[nH]2)CC1 [Example 263, 5-(2-((4-Methylpiperazin-1-yl)methyl)-1H-pyrrolo[2,3-b]pyridine-4-yl)-1H-indazol-3-amine]		300 nM
CC(C)(N)C#Cc1c(-c2ccc3[nH]nc(N)c3c2)ccnc1N [Example 92, 5-(2-Amino-3-(3-amino-3-methylbut-1-yn-1-yl)pyridin-4-yl)-1H-indazol-3-amine]	87 nM	
Nc1n[nH]c2c(C#CC3CCCCC3)cc(-c3ccnc4[nH]ccc34)cc12 [Example 204, 7-(Cyclohexylethynyl)-5-(1H-pyrrolo[2,3-b]pyridin-4-yl)-1H-indazol-3-amine]		13500 nM
CC(C)(O)C#Cc1c(-c2ccc3[nH]nc(N)c3c2)ccnc1N [Example 87, 4-(2-Amino-4-(3-amino-1H-indazol-5-yl)pyridine-3-yl)-2-methylbut-3-yn-2-ol]	36 nM	
Nc1nccc(-c2ccc3[nH]nc(N)c3c2)c1C#CCCCN1CCCCC1 [Example 95, 5-(2-Amino-3-(5-(piperidin-1-yl)pent-1-yn-1-yl)pyridin-4-yl)-1H-indazol-3-amine]	545 nM	
Nc1n[nH]c2ccc(-c3ccnc4[nH]c(C5CCCCN5)cc34)cc12 (stereo not drawn) [Example 250, 5-(2-(Piperidin-2-yl)-1H-pyrrolo[2,3-b]pyridine-4-yl)-1H-indazol-3-amine]		810 nM
